{"source": "patent US9962378B2", "about": "“ROS1 inhibitor and its use” (Macau University of Science and Technology, priority 2015, dated 2018)", "type_in_all_cases": "cell-based", "key": {"[1]": {"test_system": "HCC78 NSCLC cells (with ROS1 rearrangement)", "assay": "MTT cytotoxicity assay on HCC78 NSCLC cells", "conditions": "Homo sapiens, 72 h, mean±SEM, read-out: IC50 (cell viability, MTT)", "description": "(§1) HCC78 cells and CCD19-Lu cells were obtained from the American Type Culture Collection and cultured in environment of 5% CO2 at 37° C. in RPMI-1640 (GIBCO, Lift Technologies) medium supplemented with 10% fetal bovine serum (FBS) (GIBCO, Lift Technologies), 100 units/mL penicillin, and 100 μg/mL streptomycin (GIBCO, Lift Technologies), crizotinib was purchased from Selleck Chemicals.\n(§2) For MTT assay, 3000 cells were seeded on 96-well plates, then treated with DMSO or various concentrations of the compound of Formula (V) for 72 h. At the end of the incubation, 10 μL of MTT (5 mg/mL; Sigma) was added into each well, and the plates were incubated for an additional 4 hours, then the dark blue crystals were dissolved in 100 μL of the resolved solution (10% SDS and 0.1 mM HCL). Finally, the absorbance was measured by a microplate reader at 570 nm (Tecan, Morrisville, N.C., USA). The cell viability was calculated relative to untreated controls, with results based on at least three independent experiments."}, "[2]": {"test_system": "normal lung cells (CCD19-Lu)", "assay": "MTT cytotoxicity assay on normal lung cells", "conditions": "Homo sapiens, CCD 19Lu, 72 h, 0-20 μM, read-out: IC50 (cell viability, MTT)", "description": "as §1, §2"}, "[3]": {"test_system": "HCC78 cells", "assay": "Annexin-V FITC/PI flow cytometry apoptosis assay", "conditions": "HCC78 cells, 2.5, 5 and 10 μM, 24 h, compared to control group; concentration-dependent", "description": "HCC78 cells (1.0×10^5 cells/well) were allowed to attach in a 6-well plates for 24 h, cells were treated with the compound of Formula (V) for 24 h. Subsequently, cells were trypsinized, washed with PBS and stained with 100 μL binding buffer containing 2 μL Annexin-V FITC and 4 μL propidine iodide (PI) incubated in the dark at room temperature for 15 min, before further addition of 400 μL of 1× Annexin-binding buffer. The stained cells were analyzed quantitatively using a Flow Cytometer (BD Biosciences, San Jose, Calif., USA). Data were analyzed by Flow Jo software."}, "[4]": {"test_system": "HCC78 cells", "assay": "colony formation assay", "conditions": "HCC78 cells, 1.25, 2.5 and 5 μM, 10 days; dose-dependent", "description": "Still further, inhibitory effect of the compound of Formula (V) on the colony formation in HCC78 cells has been tested to provide further evidence that the compound of Formula (V) inhibits the formation of colonies of cancerous cell to an exceptional degree, too.\nHCC78 cells were seeded on a six-well plate at a density of 500 cells per well. The cells were exposed to various concentrations of the compound of Formula (V). After 10 days, the colonies were fixed with 4% paraformaldehyde and stained with a 0.5% (0.5% w/v) crystal violet solutions, the number of colonies >50 was counted under a dissecting microscope and surviving fractions were calculated."}, "[5]": {"test_system": "ROS1 phosphorylation and ROS1 downstream signaling molecules pERK1/2, pSTAT3 and pAKT", "assay": "western blot of ROS1 phosphorylation and downstream signaling", "conditions": "HCC78 cells, 2.5, 5 and 10 μM, dose-dependent", "description": "Additionally, the suppression of ROS1 phosphorylation as well as its downstream signaling pathway by the compound of Formula (V) has been studied.\nCells exposed to different concentrations of compound of Formula (V), namely 2.5, 5 and 10 μM or 2.5 μM crizotinib as described above and a control group were washed twice with cold PBS then lysed in RIPA lysis buffer containing protease and phosphatase inhibitors, protein concentration of the cell lysates were measured using the Bio-Rad protein Assay kit (Bio-Rad, Philadelphia, Pa., USA). After equalizing the protein concentrations of the samples, 5× laemmli buffer was added and boiled at 100° C. for 5 min. Equal amounts of protein (20-40 μg per lane) were separated with a 10% SDS-PAGE gel, then the separated proteins were transferred to a nitrocellulose (NC) membrane, which was then exposed to 5% non-fat dry milk in TBS containing 0.1% Tween 20 (0.1% TBST) for 1 hour at room temperature with constant agitation, followed by overnight incubation at 4° C. with primary antibodies, after washing 3 times by TBST, the membranes were incubated with secondary rabbit or mouse fluorescent antibodies, the signal intensity of the membranes was detected by an LI-COR Odessy scanner (Belfast, Me., USA). Antibodies against GAPDH, p-AKT, p-ROS1, ROS1, p-ERK, ERK, p-STAT3, STAT3 were purchased from Cell signaling Technology. […]"}}, "data": [{"smiles": "CCN(CC)CCNC(=O)c1cc2c(=O)n(C)c3cc(Cl)ccc3c2s1", "note": "[compound of Formula (V)]", "values": [{"measurement": "IC50", "setting": "[1]", "value": "6.35 ± 1.44", "unit": "µM"}, {"measurement": "IC50", "setting": "[2]", "value": "> 20", "unit": "µM"}, {"measurement": "induction of apoptosis", "setting": "[3]", "value": "induced significant levels of cell apoptosis compared to the control group"}, {"measurement": "formation of HCC78 cell colonies", "setting": "[4]", "value": "advantageously inhibited the formation of HCC78 cell colonies"}, {"measurement": "ROS1 downstream signaling molecules pERK1/2, pSTAT3 and pAKT", "setting": "[5]", "value": "inhibition"}, {"measurement": "ROS1 phosphorylation", "setting": "[5]", "value": "inhibition of ROS1 phosphorylation"}]}]}
